Results as given in patent publication US9713615B2, “Tetrahydroisoquinolin-2-yl-(quinazolin-4-yl)methanone compounds” (Rexahn Pharmaceuticals, Inc., priority 2013, dated 2017).

Assays:
[1] = system: HCT116 (colon); test: SRB growth inhibition assay, HCT116; assay type: cell-based, Human; details: Homo sapiens, HCT-116, 96 hours incubation, read-out: Inhibition of cell growth (IC50, μM) HCT116
Excerpt: (§1) Cancer cells used in this study to determine the effect of tetrahydroisoquinolin-2-yl-(quinazolin-4-yl)methanone compounds were obtained from the following sources: Human OVCAR-3 (ovary), SK-MEL-28 (melanoma), MDA-MB-231 (breast), HeLa (cervix), PC3 (prostate), HepG2 (liver), A549 (lung), Caki-1 (kidney), HCT116 (colon) and PANC-1 (pancreas) from the American Type Culture Collection (ATCC) (Manassas, Va.); U251 (brain) from Riken (Japan); MKN-45 (stomach) from DSMZ (Germany). All cell lines except MDA-MB-231, HCT116, Caki-1 and PANC-1 were grown in RPMI1640 medium (Invitrogen, Carlsbad, Calif.) supplemented with 10% fetal bovine serum (“FBS”), 1 mM sodium pyruvate, 10 mM HEPES and 100 U/ml penicillin and 100 μg/ml streptomycin (“P/S”). MDA-MB-231, HCT116, Caki-1 and PANC-1 cells were maintained in Dulbecco's modified Eagle's medium (“DMEM”, Invitrogen) supplemented with 10% FBS, P/S, 10 mM HEPES and 2 mM L-glutamine. All cells were incubated at 37° C. under humidified 5% CO2.
(§2) The growth inhibition of the tetrahydroisoquinolin-2-yl-(quinazolin-4-yl)methanone compounds against a variety of human tumor cells was evaluated to study the relative importance of particular substituent groups on the compounds. The tetrahydroisoquinolin-2-yl-(quinazolin-4-yl)methanone compounds, prepared as described above, were tested with DMSO as a control.
(§3) The growth inhibition assay of representative tetrahydroisoquinolin-2-yl-(quinazolin-4-yl)methanone derivatives against human tumor cell lines was performed using the Sulforhodamine B (“SRB”) method (Skehan et al., J. National Cancer Institute, 82: 1107-1112 (1990)). Briefly, exponentially growing tumor cells were seeded into a 96-well plate at a density of 2-3×10^3 cells/well and treated with tetrahydroisoquinolin-2-yl-(quinazolin-4-yl)methanone compounds the next day. Triplicate wells were used for each treatment. The cells were incubated with the various compounds for 96 hours at 37° C. in a humidified 5% CO2 atmosphere. After 96-hour incubation, cells were fixed with 10% trichloroacetic acid (“TCA”), incubated for 1 hour at 4° C., and washed 3 times with tap water. Subsequently, cells were stained with 0.4% sulforhodamine B in 1% acetic acid for 30 minutes, washed 4 times with 1% acetic acid, and air-dried again After 5 minutes agitation in 10 mM Tris solution, the absorbance of each well was measured at 530 nm using Benchmark Plus Microplate reader (Bio-Rad Laboratories, Hercules, Calif.).
(§4) To translate the OD530 values into the number of live cells in each well, the OD530 values were compared to those on standard OD530-versus-cell number curves generated for each cell line. The percent survival was calculated using the formula: % Survival=live cell number [test]/live cell number [control]×100
(§5) The IC50 values were calculated by non-linear regression analysis.
(§6) The compounds were screened against at […] including PANC-1, MDA-MB-231, HCT116 and Caki-1, at approximately 1 μM concentration. The inhibition of cell growth (IC50, μM) of some tetrahydroisoquinolin-2-yl-(quinazolin-4-yl)methanone compounds are shown in Table 2.

[2] = system: SK-MEL-28 (melanoma); test: SRB growth inhibition assay, SK-MEL-28; assay type: cell-based; details: Homo sapiens, 96 hours incubation, read-out: Inhibition of cell growth (IC50, μM) SK-MEL-28
Excerpt: as §1, §2, §3, §4, §5

[3] = system: PANC-1 (pancreas); test: SRB growth inhibition assay, PANC-1; assay type: cell-based, Human; details: Homo sapiens, PANC-1, 96 hours incubation, read-out: Inhibition of cell growth (IC50, μM) Panc-1
Excerpt: as §1, §2, §3, §4, §5, §6

[4] = system: MDA-MB-231 (breast); test: SRB growth inhibition assay, MDA-MB-231; assay type: cell-based, Human; details: Homo sapiens, MDA-MB-231, 96 hours incubation, read-out: Inhibition of cell growth (IC50, μM) MDA-MB-231
Excerpt: as §1, §2, §3, §4, §5, §6

[5] = system: HepG2 (liver); test: SRB growth inhibition assay, HepG2; assay type: cell-based; details: Homo sapiens, 96 hours incubation, read-out: Inhibition of cell growth (IC50, μM) HepG2
Excerpt: as §1, §2, §3, §4, §5

[6] = system: HeLa (cervix); test: SRB growth inhibition assay, HeLa; assay type: cell-based; details: Homo sapiens, 96 hours incubation, read-out: Inhibition of cell growth (IC50, μM) HeLa
Excerpt: as §1, §2, §3, §4, §5

[7] = system: U251 (brain); test: SRB growth inhibition assay, U251; assay type: cell-based; details: Homo sapiens, U-251, 96 hours incubation, read-out: Inhibition of cell growth (IC50, μM) U251
Excerpt: as §1, §2, §3, §4, §5

[8] = system: MKN-45 (stomach); test: SRB growth inhibition assay, MKN-45; assay type: cell-based; details: Homo sapiens, 96 hours incubation, read-out: Inhibition of cell growth (IC50, μM) MKN-45
Excerpt: as §1, §2, §3, §4, §5

[9] = system: OVCAR-3 (ovary); test: SRB growth inhibition assay, OVCAR-3; assay type: cell-based; details: Homo sapiens, 96 hours incubation, read-out: Inhibition of cell growth (IC50, μM) Ovcar3
Excerpt: as §1, §2, §3, §4, §5

[10] = system: Caki-1 (kidney); test: SRB growth inhibition assay, Caki-1; assay type: cell-based, Human; details: Homo sapiens, CAKI-1, 96 hours incubation, read-out: Inhibition of cell growth (IC50, μM) Caki-1
Excerpt: as §1, §2, §3, §4, §5, §6

[11] = system: PC3 (prostate); test: SRB growth inhibition assay, PC3; assay type: cell-based; details: Homo sapiens, 96 hours incubation, read-out: Inhibition of cell growth (IC50, μM) PC-3
Excerpt: as §1, §2, §3, §4, §5

[12] = system: A549 (lung); test: SRB growth inhibition assay, A549; assay type: cell-based; details: Homo sapiens, 96 hours incubation, read-out: Inhibition of cell growth (IC50, μM) A549
Excerpt: as §1, §2, §3, §4, §5

Row | Compound | IC50 [1] [µM] | IC50 [2] [µM] | IC50 [3] [µM] | IC50 [4] [µM] | IC50 [5] [µM] | IC50 [6] [µM] | IC50 [7] [µM] | IC50 [8] [µM] | IC50 [9] [µM] | IC50 [10] [µM] | IC50 [11] [µM] | IC50 [12] [µM]
1 | COc1ccc2c(c1)CCN(C(=O)c1nc(-c3ccc(F)cc3)nc3ccccc13)C2 [Compound 7, 2-[[2-(4-fluorophenyl)quinazolin-4-yl]carbonyl]-6-methoxy-1,2,3,4-tetrahydroisoquinoline] | 1.1 | 0.36 | 0.53 | 0.9 | 0.72 | 0.24 | 0.64 | 0.19 | 0.16 | 0.61 |  | 
2 | COc1ccc2c(c1O)CCN(C(=O)c1nc(-c3ccccc3)nc3ccccc13)C2 [Compound 17, 2-[[2-phenylquinazolin-4-yl]carbonyl]-5-hydroxy-6-methoxy-1,2,3,4-tetrahydroisoquinoline] | 0.081 | 0.069 | 0.062 | 0.066 | 0.14 | 0.074 | 0.067 | 0.063 | 0.074 | 0.057 | 0.076 | 0.15
3 | COc1ccc(-c2nc(C(=O)N3CCc4c(ccc(OC)c4O)C3)c3ccccc3n2)cc1 [Compound 22, 2-[[2-(4-methoxylphenyl)quinazolin-4-yl]carbonyl]-5-hydroxy-6-methoxy-1,2,3,4-tetrahydroisoquinoline] | 0.086 | 0.072 | 0.056 | 0.052 | 0.19 | 0.064 | 0.069 | 0.055 | 0.08 | 0.057 | 0.076 | 0.15
4 | COc1ccc2c(c1O)CCN(C(=O)c1nc(-c3cccc(F)c3)nc3ccccc13)C2 [Compound 42, 2-[[2-(3-fluorophenyl)quinazolin-4-yl]carbonyl]-5-hydroxy-6-methoxy-1,2,3,4-tetrahydroisoquinoline] | 0.14 | 0.098 | 0.12 | 0.12 | 0.2 | 0.12 | 0.11 | 0.051 | 0.15 | 0.082 | 0.15 | 0.21
5 | COc1ccc2c(c1O)CCN(C(=O)c1nc(-c3ccc(F)cc3F)nc3ccccc13)C2 [Compound 57, 2-[[2-(2,4-difluorophenyl)quinazolin-4-yl]carbonyl]-5-hydroxy-6-methoxy-1,2,3,4-tetrahydroisoquinoline] | 0.22 | 0.2 | 0.19 | 0.17 | 0.31 |  | 0.17 |  | 0.23 | 0.21 | 0.21 | 
6 | CC(=O)Nc1ccc(-c2nc(C(=O)N3CCc4c(ccc(C)c4O)C3)c3ccccc3n2)cc1 [Compound 64, 2-[[2-(4-acetamidophenyl)quinazolin-4-yl]carbonyl]-5-hydroxy-6-methyl-1,2,3,4-tetrahydroisoquinoline] | 0.89 |  | 0.68 | 0.52 |  |  |  |  |  | 0.63 |  | 
7 | COc1ccc2c(c1O)CCN(C(=O)c1nc(-c3ccncn3)nc3ccccc13)C2 [Compound 70, 2-[[2-(4-pyrimidinyl)quinazolin-4-yl]carbonyl]-5-hydroxy-6-methoxy-1,2,3,4-tetrahydroisoquinoline] | 0.068 | 0.059 | 0.054 | 0.045 | 0.096 | 0.074 | 0.064 | 0.058 | 0.068 | 0.055 | 0.049 | 0.11
8 | COc1ccc2c(c1OC)CCN(C(=O)c1nc(-c3ccncn3)nc3ccccc13)C2 [Compound 72, 2-[[2-(4-pyrimidinyl)quinazolin-4-yl]carbonyl]-5,6-dimethoxy-1,2,3,4-tetrahydroisoquinoline] | 0.55 |  | 0.49 | 0.46 |  |  |  |  |  | 0.39 |  | 
9 | Cc1ccc2c(c1O)CCN(C(=O)c1nc(-c3ccncn3)nc3ccccc13)C2 [Compound 73, 2-[[2-(4-pyrimidinyl)quinazolin-4-yl]carbonyl]-5-hydroxy-6-methyl-1,2,3,4-tetrahydroisoquinoline] | 0.26 |  | 0.2 | 0.21 |  |  |  |  |  | 0.19 |  | 
10 | COc1ccc2c(c1O)CCN(C(=O)c1nc(-c3cscn3)nc3ccccc13)C2 [Compound 79, 2-[[2-(4-thiazolyl)quinazolin-4-yl]carbonyl]-5-hydroxy-6-methoxy-1,2,3,4-tetrahydroisoquinoline] | 0.2 |  | 0.17 | 0.17 |  |  |  |  |  | 0.16 |  | 
11 | COc1ccc2c(c1OC)CCN(C(=O)c1nc(-c3cscn3)nc3ccccc13)C2 [Compound 81, 2-[[2-(4-thiazolyl)quinazolin-4-yl]carbonyl]-5,6-dimethoxy-1,2,3,4-tetrahydroisoquinoline] | 1.26 |  | 1.43 | 1 |  |  |  |  |  | 1.21 |  | 
12 | Cc1ccc2c(c1O)CCN(C(=O)c1nc(-c3cscn3)nc3ccccc13)C2 [Compound 83, 2-[[2-(4-thiazolyl)quinazolin-4-yl]carbonyl]-5-hydroxy-6-methyl-1,2,3,4-tetrahydroisoquinoline] | 0.29 |  | 0.23 | 0.21 |  |  |  |  |  | 0.25 |  | 
13 | Cc1ccc2c(c1O)CCN(C(=O)c1nc(-c3cccnc3)nc3ccccc13)C2 [Compound 88, 2-[[2-(3-pyridinyl)quinazolin-4-yl]carbonyl]-5-hydroxy-6-methyl-1,2,3,4-tetrahydroisoquinoline] | 1.12 |  | 0.93 | 0.67 |  |  |  |  |  | 0.97 |  | 
14 | COc1ccc2c(c1O)CCN(C(=O)c1nc(-c3ccc(F)cc3)nc3ccc(F)cc13)C2 [Compound 97, 2-[[6-fluoro-2-(4-fluorophenyl)quinazolin-4-yl]carbonyl]-5-hydroxy-6-methoxy-1,2,3,4-tetrahydroisoquinoline] | 0.17 | 0.11 | 0.13 | 0.16 | 0.18 | 0.16 | 0.13 | 0.087 | 0.073 | 0.11 |  | 
